Data from patent publication US20050143357A1 (priority 2002, published 2005).

Legend:
[1] = test system: upstream regulatory portion of the VDUP-1; test: VDUP-1 regulatory region luciferase reporter assay in transiently transfected LNCaP cells; format: cell-based, human; details: VDUP-1 regulatory portion fused to luceferase gene, different time points, luminometer
Method: A human cell line, LNCaP was transiently transfected with a DNA vector composed of the upstream regulatory portion of the VDUP-1 fused to the gene encoding luceferase. The procedures to carry out transfection were essentially as described in example 2. At different time points a steroid with androgen properties, exemplified as R1881, were added to cell cultures, as was calcitriol (vitamin D). At different time points, luciferace activity in cell extracts was measured using a luminometer. The outcome of this experiment was that the level of luceferase was decreased by the steroid and was increased by vitamin D.

5 α-reduotase = details: once it enters prostate cells, by 5 α-reduotase; cited from earlier work

SMILES | level of luceferase (luciferace activity in cell extracts) [1] | fraction converted to dihydrotestosterone (DHT) (5 α-reduotase)
C[C@]1(O)CC[C@H]2[C@@H]3CCC4=CC(=O)CCC4=C3C=C[C@@]21C [R1881] | decreased | 
C[C@]12CC[C@H]3[C@@H](CCC4=CC(=O)CC[C@@]43C)[C@@H]1CC[C@@H]2O [Testosterone] |  | about 90%
C=C1/C(=C\C=C2/CCC[C@]3(C)[C@@H]([C@H](C)CCCC(C)(C)O)CC[C@@H]23)C[C@@H](O)C[C@@H]1O [calcitriol] | increased | 
